# Results as given in EP4813979A1, “COMPOUND FOR EGFR PROTEIN DEGRADATION AND USE THEREOF” (TYK Medicines, Inc., priority 2023, dated 2025).
# pIC50: −log10 of the molar value.
# What was measured:
# A549 = assay: Cell anti-proliferation experiment (CTG); type: cell-based; settings: Homo sapiens, A549, 72 h, A549 (wild-type EGFR)
# From the text: (§1) H1975 has an EGFR: T790M/L858R double mutation, PC-9 has an EGFR exon 19 deletion, and HCC827 has an exon 19 deletion mutation. Baf3-19del- T790M -C797S (Baf3-DTC) is a stable Ba/F3 clone expressing exogenous EGFR gene bearing T790M, C797S, and […] triple amino acid mutations, purchased from KYinno. Baf3-L858R-T790M - C797S (Baf3-LTC) is a stable Ba/F3 clone expressing exogenous EGFR gene bearing […], T790M, and C797S triple mutations, purchased from KYinno. A549 is a wild-type EGFR, purchased from Nanjing Kebai Biotechnology. A431 is a wild-type EGFR, purchased from Shanghai Xinyu Biotechnology. CellCounting-Lite2.0, Trypsin EDTA, 37°C CO2 incubator, cell counter, EnVision Serial No. 1050454.
# (§2) • A) Digested logarithmic phase cells with Trypsin EDTA, added culture medium to stop the reaction, and mixing well with a pipette to prepare a cell suspension. • B) Used Vi-cell to determine cell concentration, and prepared a suspension of 15,000-25,000 cells per milliliter according to the experimental purpose and cell characteristics. • C) After prepared the cell suspension, mixed it gently and added 100 µL to each well, so that the cell density to be tested is 1500-2500 per well.
# (§3) • A) Weighed approximately 2 mg the compound and calculated the required volume of DMSO according to the formula: Compound mass (mg) * Compound purity (%) / Compound molecular weight * 1000. • B) Placed the inoculated cell culture plate into an incubator and incubated for about 24 hours. Then added compounds of varying concentrations. • C) Diluted the 10mM compound stock solution to […] with culture medium, and added the […] compound solution to the second column of the deep well plate in sequence, and added […] culture medium containing 0.5% DMSO to the third to eleventh columns. • D) Gradient dilution: Taked 125 µL solution from the second column and added it to the third column, mix well; then taked 125 µL solution from the third column and added it to the fourth column, repeated this operation until the tenth column. • E) Used a multichannel pipette, aspirated 25 µL the compound from the deep-well plate and added it to a 96-well culture plate. Repeated this process three times for each compound on the 96-well plate. This will ultimately create a concentration gradient of up to 10,000 nM at a 1:4 ratio on the 96-well plate.
# (§4) • A) The effects of the compound were observed under an inverted microscope after the 96-well plate was incubated in an incubator for 72 hours. • B) Added 25 µL CTG solution to each well, placed on a shaker for 10 minutes, and read the […] of each well.
# (§5) Calculate the % Cell Viability using the following formula: %Cell Viability = 100% × (Lum_Sample−Lum_LC)/(Lum_HC−Lum_LC) [formula] • Lum_HC: Cell readings from the 0.1% DMSO control group • Lum_Sample: Cell readings with added compound • Lum_LC: Blank culture medium reading
# (§6) The IC50 value was obtained by curve fitting using GraphPad Prism 8 software.
# H1975 = assay: Cell anti-proliferation experiment (CTG); type: cell-based; settings: Homo sapiens, NCI-H1975, 72 h, H1975 (EGFR T790M/L858R)
# From the text: as §1, §2, §3, §4, §5, §6
# HCC827 = assay: Cell anti-proliferation experiment (CTG); type: cell-based; settings: Homo sapiens, HCC827, 72 h, HCC827 (exon 19 deletion)
# From the text: as §1, §2, §3, §4, §5, §6
# PC-9 = assay: Cell anti-proliferation experiment (CTG); type: cell-based; settings: Homo sapiens, PC-9, 72 h, PC-9 (EGFR exon 19 deletion)
# From the text: as §1, §2, §3, §4, §5, §6
# A431 = assay: Cell anti-proliferation experiment (CTG); type: cell-based; settings: Homo sapiens, A-431, 72 h, A431 (wild-type EGFR)
# From the text: as §1, §2, §3, §4, §5, §6
# [1] = system: Baf3-19del- T790M -C797S (Baf3-DTC); assay: Cell anti-proliferation experiment (CTG); type: cell-based; settings: 72 h
# From the text: as §1, §2, §3, §4, §5, §6
# [2] = system: Baf3-L858R-T790M - C797S (Baf3-LTC); assay: Cell anti-proliferation experiment (CTG); type: cell-based; settings: 72 h
# From the text: as §1, §2, §3, §4, §5, §6
# [3] = Pharmacokinetic tests in male SD rats; type: in vivo; settings: oral gavage (po), 10 mg/kg, plasma
# Description: Three healthy adult male SD rats, 6-8 weeks old, weighing 200-300 grams.
# EDTA-Na2 anticoagulant, weighed 11.2 g EDTA-Na2 and placed it in a reagent bottle. Added 100 mL physiological saline and shaked to dissolve completely. After preparation, dispensed into 1.5 mL centrifuge tubes, each containing approximately 20 µL, for whole blood sample collection.
# Accurately weighed approximately 10 mg the sample to be tested, added 10% of the converted total volume of DMSO to dissolve it, and then slowly added 90% of the total volume of 0.5% MC solvent while stirring. Sonicated and vortex to mix thoroughly to obtain a solution of the preparation that is considered to be homogeneous, with a concentration of 1 mg/mL. Prepared fresh immediately before use.
# Piped 0.2 mL the sample into a 1.5 mL centrifuge tube and store at -80°C for analysis of the concentration of the drug solution.
# Animals were housed in rat cages and fasted for at least 10 hours starting the day before the experiment, but water was allowed. On the day of the experiment, each animal was weighed and marked on its tail. Blank blood samples were collected before drug administration. Blood was collected via tail vein.
# • Route of administration: Oral gavage (po); • Dosage concentration: 1 mg/ml; • Dosage: 10 mg/kg; • Dosage volume: 10 mL/kg; • Procedure: Hold the rat upright with your left hand wearing a bite-proof glove, insert the gavage needle into the throat through the mouth, and insert the needle when feeling no obvious resistance. Then inject the drug into the stomach.
# Whole blood (0.1-0.2 ml) was collected from test animals at 0.5 h, 1 h, 2 h, 4 h, 6 h, 8 h, 12 h, and 24 h after drug administration. The samples were placed in EDTA-Na 2 anticoagulant tubes, inverted 3-4 times to mix, and centrifuged at 4°C, 2000 g for 5 min to separate the supernatant plasma. The plasma was promptly transferred to -80°C for storage until analysis. Blood was collected via tail vein.
# A quantitative detection method for the analyte was established using Shimadzu liquid chromatography and Triple Quad™ 6500+AB mass spectrometry. The concentration of the parent drug in plasma was analyzed. The analytical results were controlled for variation using quality control samples, with the accuracy of the quality control samples expected to be between 80% and 120%.
# The main pharmacokinetic parameters were calculated using a non-compartmental model in Winnonlin Phoenix software. These parameters included the area under the curve (AUC(0-t) and AUC(0-∞)), elimination half-life (T1/2), maximum plasma concentration (Cmax ), and time to reach maximum plasma concentration (Tmax).The results are shown in Table 3.
SMILES,pIC50 (A549; class symbol),pIC50 (A549; number after the class symbol),pIC50 (H1975; class symbol),pIC50 (H1975; number after the class symbol),pIC50 (HCC827; class symbol),pIC50 (HCC827; number after the class symbol),pIC50 (PC-9; class symbol),pIC50 (PC-9; number after the class symbol),pIC50 (A431; class symbol),pIC50 ([1]; class symbol),pIC50 ([2]; class symbol),pIC50 (A431; number after the class symbol),pIC50 ([1]; number after the class symbol),pIC50 ([2]; number after the class symbol),HL [3],AUC(0-inf) ([3]; rat),AUC(0-t) ([3]; rat),Cmax ([3]; rat),MRT last ([3]; rat),Tmax ([3]; rat)
"COc1cc(N2CCN(C(=O)CN3CCC(c4ccc5c(N6CCC(=O)NC6=O)nn(C)c5c4)CC3)CC2)ccc1Nc1ncc(Cl)c(Nc2ccccc2)n1 [DZL-2, reference compound]",6.00 to 7.00,6.54,6.00 to 7.00,6.66,6.00 to 7.00,6.58,6.00 to 7.00,6.21,–,–,–,–,–,–,–,–,–,–,–,–
CCc1cc(Nc2ncc(Br)c(Nc3ccc(OC4CC4)cc3P(C)(C)=O)n2)c(OC)cc1N1CC2(CCN(C(=O)CN3CCC(c4cc5c(cc4F)c(N4CCC(=O)NC4=O)nn5C)C(F)(F)C3)CC2)C1 (stereo not drawn) [TC-232],< 6.00,–,7.00 to 8.00,–,7.00 to 8.00,–,6.00 to 7.00,–,< 6.00,> 8.00,> 8.00,–,–,–,–,–,–,–,–,–
CCc1cc(Nc2ncc(Cl)c(Nc3ccccc3P(C)(C)=O)n2)c(OC)cc1N1CCN(C(=O)CN2CCC(c3ccc4c(N5CCC(=O)NC5=O)nn(C)c4c3)C(F)(F)C2)CC1 (stereo not drawn) [TC-215],6.00 to 7.00,6.49,6.00 to 7.00,6.78,6.00 to 7.00,6.64,6.00 to 7.00,6.19,< 6.00,> 8.00,> 8.00,5.97,8.25,8.28,–,–,–,–,–,–
CCc1cc(Nc2ncc(Cl)c(Nc3ccccc3P(C)(C)=O)n2)c(OC)cc1N1CCN(CCN2CCC(c3cc4c(cc3F)c(N3CCC(=O)NC3=O)nn4C)C(F)(F)C2)CC1 (stereo not drawn) [TC-099],–,–,–,–,–,–,–,–,–,–,–,–,–,–,7.86 h,9130 ng·h/mL,7840 ng·h/mL,649 ng/mL,7.79 h,2.67 h
CCc1cc(Nc2ncc(Cl)c(Nc3ccccc3P(C)(C)=O)n2)c(OCC(F)(F)F)nc1N1CCN(C(=O)CN2CCC(c3cc4c(cc3F)c(N3CCC(=O)NC3=O)nn4C)C(F)(F)C2)CC1 (stereo not drawn) [TC-127],< 6.00,–,6.00 to 7.00,–,6.00 to 7.00,–,< 6.00,–,< 6.00,7.00 to 8.00,7.00 to 8.00,–,–,–,–,–,–,–,–,–
COc1nc(N2CCN(C(=O)CN3CCC(c4cc5c(cc4F)c(N4CCC(=O)NC4=O)nn5C)C(F)(F)C3)CC2)ccc1Nc1ncc(Cl)c(Nc2ccccc2P(C)(C)=O)n1 (stereo not drawn) [TC-125],6.00 to 7.00,–,6.00 to 7.00,–,6.00 to 7.00,–,6.00 to 7.00,–,6.00 to 7.00,6.00 to 7.00,7.00 to 8.00,–,–,–,–,–,–,–,–,–
CCc1cc(Nc2ncc(Cl)c(Nc3ccccc3P(C)(C)=O)n2)c(OC)nc1N1CCN(C(=O)CN2CCC(c3cc4c(cc3F)c(N3CCC(=O)NC3=O)nn4C)C(F)(F)C2)CC1 (stereo not drawn) [TC-115],6.00 to 7.00,–,6.00 to 7.00,–,6.00 to 7.00,–,6.00 to 7.00,–,< 6.00,7.00 to 8.00,7.00 to 8.00,–,–,–,–,–,–,–,–,–
CCc1cc(Nc2ncc(Cl)c(Nc3ccccc3P(C)(C)=O)n2)c(OC)cc1N1CCC2(CCN(C(=O)CN3CCC(c4cc5c(cc4F)c(N4CCC(=O)NC4=O)nn5C)C(F)(F)C3)CC2)C1 (stereo not drawn) [TC-111],6.00 to 7.00,–,6.00 to 7.00,–,6.00 to 7.00,–,6.00 to 7.00,–,< 6.00,7.00 to 8.00,7.00 to 8.00,–,–,–,–,–,–,–,–,–
CCc1cc(Nc2ncc(Cl)c(Nc3ccccc3P(C)(C)=O)n2)c(OC)cc1N1CC2(CCN(C(=O)CN3CCC(c4cc5c(cc4F)c(N4CCC(=O)NC4=O)nn5C)C(F)(F)C3)C2)C1 (stereo not drawn) [TC-105],6.00 to 7.00,–,6.00 to 7.00,–,7.00 to 8.00,–,6.00 to 7.00,–,6.00 to 7.00,7.00 to 8.00,7.00 to 8.00,–,–,–,–,–,–,–,–,–
CCc1cc(Nc2ncc(Cl)c(Nc3ccccc3P(C)(C)=O)n2)c(OC)cc1N1CCC(N(C)C(=O)CN2CCC(c3cc4c(cc3F)c(N3CCC(=O)NC3=O)nn4C)C(F)(F)C2)CC1 (stereo not drawn) [TC-089],< 6.00,–,7.00 to 8.00,–,6.00 to 7.00,–,6.00 to 7.00,–,< 6.00,7.00 to 8.00,7.00 to 8.00,–,–,–,–,–,–,–,–,–
COc1cc(N2CCN(C(=O)CN3CCC(c4cc5c(cc4F)c(N4CCC(=O)NC4=O)nn5C)C(F)(F)C3)CC2)c(Cl)cc1Nc1ncc(Br)c(Nc2ccccc2P(C)(C)=O)n1 (stereo not drawn) [TC-138],< 6.00,–,7.00 to 8.00,–,6.00 to 7.00,–,6.00 to 7.00,–,< 6.00,> 8.00,> 8.00,–,–,–,–,–,–,–,–,–
CCc1cc(Nc2ncc(Cl)c(Nc3ccccc3P(C)(C)=O)n2)c2c(c1N1CCN(C(=O)CN3CCC(c4cc5c(cc4F)c(N4CCC(=O)NC4=O)nn5C)C(F)(F)C3)CC1)CCO2 (stereo not drawn) [TC-135],< 6.00,–,7.00 to 8.00,–,6.00 to 7.00,–,< 6.00,–,< 6.00,> 8.00,> 8.00,–,–,–,–,–,–,–,–,–
CCc1cc(Nc2ncc(Br)c(Nc3ccccc3P(C)(C)=O)n2)c(OC)cc1N1CCC2(CC1)CN(C(=O)CN1CCC(c3cc4c(cc3F)c(N3CCC(=O)NC3=O)nn4C)C(F)(F)C1)C2 (stereo not drawn) [TC-226],6.00 to 7.00,–,6.00 to 7.00,–,6.00 to 7.00,–,6.00 to 7.00,–,< 6.00,> 8.00,> 8.00,–,–,–,–,–,–,–,–,–
CCc1cc(Nc2ncc(Cl)c(Nc3ccccc3P3(=O)CCCC3)n2)c(OC)cc1N1CC2(CCN(C(=O)CN3CCC(c4cc5c(cc4F)c(N4CCC(=O)NC4=O)nn5C)C(F)(F)C3)CC2)C1 (stereo not drawn) [TB-005],< 6.00,–,7.00 to 8.00,–,6.00 to 7.00,–,< 6.00,–,< 6.00,7.00 to 8.00,7.00 to 8.00,–,–,–,–,–,–,–,–,–
